Source: ChEMBL document CHEMBL1156016, “Discovery of potent and selective histone deacetylase inhibitors via focused combinatorial libraries of cyclic alpha3beta-tetrapeptides” (J Med Chem, 2009)
Calls of active or inactive are those of the source. The rule behind the calls is not given here. Square brackets hold non-standard residues; d marks the D form. Peptide text beside a SMILES is read from it. * marks the point of attachment. Phe(F5) = N[C@@H](Cc1c(F)c(F)c(F)c(F)c1F)C(=O)O; β3hW = N[C@H](CC(=O)O)Cc1c[nH]c2ccccc12; 1Nal = N[C@@H](Cc1cccc2ccccc12)C(=O)O; β3hY = N[C@H](CC(=O)O)Cc1ccc(O)cc1; Asu = N[C@@H](CCCCCC(=O)O)C(=O)O; β3hL = CC(C)C[C@H](N)CC(=O)O; hLys = NCCCCC[C@H](N)C(=O)O; Carboxymethyl = O=C(O)C*; CH2CH2COOH = O=C(O)CC*; Aib = CC(C)(N)C(=O)O; X1 = CCC(=O)CC*; NHOH = ON*

Assays:
cells = details: Homo sapiens, KYO1, 72 h
MCF7 = test: cells; details: Homo sapiens, MCF7, 72 h
Histone deacetylase 1 = Histone deacetylase 1 (Homo sapiens, UniProt Q13547)
Chain of Histone deacetylase 1 (Q13547 whole entry): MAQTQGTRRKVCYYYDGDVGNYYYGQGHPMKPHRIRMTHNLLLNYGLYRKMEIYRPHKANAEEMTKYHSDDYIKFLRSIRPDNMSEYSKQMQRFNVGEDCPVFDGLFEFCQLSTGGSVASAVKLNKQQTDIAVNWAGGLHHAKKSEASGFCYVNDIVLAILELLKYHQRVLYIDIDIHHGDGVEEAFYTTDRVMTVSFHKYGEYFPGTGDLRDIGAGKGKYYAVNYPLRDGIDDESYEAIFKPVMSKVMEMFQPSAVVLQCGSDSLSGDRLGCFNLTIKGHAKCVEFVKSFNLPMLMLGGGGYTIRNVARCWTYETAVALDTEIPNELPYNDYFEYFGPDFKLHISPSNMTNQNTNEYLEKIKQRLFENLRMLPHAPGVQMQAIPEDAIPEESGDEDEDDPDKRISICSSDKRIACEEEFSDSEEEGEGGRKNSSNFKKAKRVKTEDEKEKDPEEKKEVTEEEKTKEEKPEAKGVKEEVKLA
Description: Inhibition of human recombinant HDAC1 after 30 mins by fluorimetric assay

[1] = target: T1, Protein deacetylase HDAC6 (Homo sapiens, UniProt Q9UBN7)
T1 sequence (Q9UBN7 whole entry): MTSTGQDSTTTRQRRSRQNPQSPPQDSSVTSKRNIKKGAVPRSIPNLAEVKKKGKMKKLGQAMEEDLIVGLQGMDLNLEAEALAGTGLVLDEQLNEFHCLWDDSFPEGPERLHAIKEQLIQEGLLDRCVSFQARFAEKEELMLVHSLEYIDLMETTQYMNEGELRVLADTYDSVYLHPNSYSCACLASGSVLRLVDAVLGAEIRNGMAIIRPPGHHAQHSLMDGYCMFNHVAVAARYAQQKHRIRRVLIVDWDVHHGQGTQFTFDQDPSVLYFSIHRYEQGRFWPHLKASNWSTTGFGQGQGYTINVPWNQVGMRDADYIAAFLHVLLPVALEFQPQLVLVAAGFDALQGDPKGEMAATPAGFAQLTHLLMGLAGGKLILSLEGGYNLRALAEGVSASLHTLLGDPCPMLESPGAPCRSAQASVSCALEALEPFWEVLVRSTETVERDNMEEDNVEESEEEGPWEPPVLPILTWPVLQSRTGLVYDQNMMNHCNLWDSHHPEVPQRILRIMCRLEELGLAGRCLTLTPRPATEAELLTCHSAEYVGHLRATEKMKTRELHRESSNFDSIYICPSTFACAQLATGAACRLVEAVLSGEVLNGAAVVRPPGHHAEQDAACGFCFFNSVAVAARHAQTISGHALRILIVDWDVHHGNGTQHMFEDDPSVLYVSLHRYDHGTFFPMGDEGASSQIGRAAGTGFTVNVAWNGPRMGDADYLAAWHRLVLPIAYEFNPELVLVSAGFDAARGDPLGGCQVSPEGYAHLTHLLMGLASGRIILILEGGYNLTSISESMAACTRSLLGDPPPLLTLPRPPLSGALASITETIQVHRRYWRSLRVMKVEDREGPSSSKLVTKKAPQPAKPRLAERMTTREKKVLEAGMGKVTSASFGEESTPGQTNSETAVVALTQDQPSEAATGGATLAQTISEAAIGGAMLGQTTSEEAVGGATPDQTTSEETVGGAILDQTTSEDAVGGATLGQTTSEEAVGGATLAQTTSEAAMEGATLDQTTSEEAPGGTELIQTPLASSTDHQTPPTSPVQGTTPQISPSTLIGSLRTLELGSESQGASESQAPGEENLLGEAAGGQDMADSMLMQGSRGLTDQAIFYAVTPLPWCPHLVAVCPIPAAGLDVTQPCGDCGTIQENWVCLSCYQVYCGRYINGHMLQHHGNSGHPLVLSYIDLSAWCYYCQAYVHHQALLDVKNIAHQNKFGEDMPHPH
Description: Inhibition of human recombinant HDAC6 after 30 mins by fluorimetric assay

Histone deacetylase 8 = target: T2, Histone deacetylase 8 (Homo sapiens, UniProt Q9BY41)
T2 sequence (Q9BY41 whole entry): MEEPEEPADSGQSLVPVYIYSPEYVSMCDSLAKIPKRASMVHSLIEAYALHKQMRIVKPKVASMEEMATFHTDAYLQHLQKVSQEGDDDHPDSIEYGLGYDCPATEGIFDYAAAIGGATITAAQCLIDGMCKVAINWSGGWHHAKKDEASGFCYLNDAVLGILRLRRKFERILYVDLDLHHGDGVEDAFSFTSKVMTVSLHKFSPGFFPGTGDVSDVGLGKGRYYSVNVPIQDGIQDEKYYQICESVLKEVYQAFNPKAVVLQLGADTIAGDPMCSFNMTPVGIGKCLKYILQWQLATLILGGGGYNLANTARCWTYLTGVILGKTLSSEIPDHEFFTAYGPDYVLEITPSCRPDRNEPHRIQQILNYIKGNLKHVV
Description: Inhibition of human recombinant HDAC8 after 30 mins by fluorimetric assay

Histone deacetylase 3 = Histone deacetylase 3 (Homo sapiens, UniProt O15379)
Chain of Histone deacetylase 3 (O15379 whole entry): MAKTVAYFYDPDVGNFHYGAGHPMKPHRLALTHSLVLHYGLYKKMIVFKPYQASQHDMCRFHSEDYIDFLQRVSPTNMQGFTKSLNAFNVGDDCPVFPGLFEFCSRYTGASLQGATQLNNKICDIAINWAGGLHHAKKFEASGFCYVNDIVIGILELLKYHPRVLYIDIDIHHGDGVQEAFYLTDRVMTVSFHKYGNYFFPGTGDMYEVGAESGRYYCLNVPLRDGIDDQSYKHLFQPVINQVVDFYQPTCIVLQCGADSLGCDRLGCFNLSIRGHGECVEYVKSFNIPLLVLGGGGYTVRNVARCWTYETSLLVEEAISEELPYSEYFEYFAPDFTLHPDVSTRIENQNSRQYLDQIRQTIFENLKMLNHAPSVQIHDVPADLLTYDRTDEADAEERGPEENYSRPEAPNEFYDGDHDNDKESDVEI
Description: Inhibition of human recombinant HDAC3 after 30 mins by fluorimetric assay

Histone deacetylase [2] = type: cell-based, Homo sapiens; details: hela
Description: Inhibition of HDAC in human HeLa cell cytosolic extract after 30 mins by fluorimetric assay

[3] = target: Histone deacetylase (Homo sapiens) (UniProt Q13547+O15379+Q9UBN7+Q92769+Q9UQL6+Q8WUI4+Q9BY41+Q96DB2+P56524+Q9UKV0+Q969S8); test: Inhibition of class 1 HDAC in human Jurkat cells assessed as acetylated histone H3 level at 0.2 to 20 uM after 24 hrs by Western blotting; type: cell-based
[4] = target: T3, Protein deacetylase HDAC6 (Homo sapiens) (UniProt Q9UBN7); test: Inhibition of HDAC6 in human Jurkat cells assessed as acetylated alpha-tubulin level at 0.2 to 20 uM after 24 hrs by Western blotting; type: cell-based
T3 sequence (whole entry): T1 sequence (Q9UBN7 whole entry)

Jurkat = test: cells; details: Homo sapiens, 72 h
HeLa = test: cells; details: Homo sapiens, 72 h
K562 = test: cells; details: Homo sapiens, K562, 72 h
Histone deacetylase [5] = type: cell-based, Homo sapiens; details: hela; remark: listed apart in the source
Description: Inhibition of HDAC in human HeLa cell nuclear extract after 30 mins by fluorimetric assay

SMILES	IC50 (Histone deacetylase 1)	IC50 [1]	IC50 (Histone deacetylase 8)	IC50 (Histone deacetylase 3)	other results
CC[C@]1(O)C[C@@H]2CN(CCc3c([nH]c4ccccc34)[C@@](C(=O)OC)(c3cc4c(cc3OC)N(C)[C@H]3[C@@](O)(C(=O)OC)[C@H](OC(C)=O)[C@]5(CC)C=CCN6CC[C@]43[C@@H]65)C2)C1 [VINBLASTINE]	–	–	–	–	GI50 (cells): < 0.1 µM; GI50 (MCF7): 10 µM
O=C(O)CCCCC[C@@H]1NC(=O)[C@H](Cc2c(F)c(F)c(F)c(F)c2F)NC(=O)C[C@H](Cc2ccc(O)cc2)NC(=O)[C@H](Cc2cccc3ccccc23)NC1=O (cyclo([1Nal][β3hY][Phe(F5)][Asu]))	1 µM	> 10 µM	6.7 µM	–	–
CC(=O)NCCCC[C@@H]1NC(=O)C[C@H](CC(C)C)NC(=O)[C@H](Cc2c[nH]c3ccccc23)NC(=O)[C@H](CSCCC(=O)O)NC1=O (cyclo(C(CH2CH2COOH)W[β3hL]K(Ac)))	–	> 10 µM	7.04 µM	> 10 µM	–
CC(C)C[C@H]1CC(=O)N[C@@H](C)C(=O)N[C@@H](CCCCCC(=O)O)C(=O)N[C@@H](Cc2ccccc2)C(=O)N1 (cyclo(A[Asu]F[β3hL]))	–	–	–	–	IC50 (Histone deacetylase [2]): 0.541 µM
CC(C)C[C@H]1CC(=O)N[C@@H](C)C(=O)N[C@@H](CSCCC(=O)O)C(=O)N[C@@H](Cc2c[nH]c3ccccc23)C(=O)N1 (cyclo(C(CH2CH2COOH)W[β3hL]A))	4.84 µM	> 10 µM	6.05 µM	7.08 µM	–
N=C(N)NCCC[C@@H]1NC(=O)C[C@H](Cc2ccc(O)cc2)NC(=O)[C@H](CC(=O)O)NC(=O)[C@H](CCCCCC(=O)NO)NC1=O (cyclo([Asu](NHOH)D[β3hY]R))	–	–	–	–	Activity [3]: inactive; Activity [4]: Active; GI50 (Jurkat): > 20 µM; GI50 (MCF7): > 20 µM; GI50 (HeLa): 9 µM
CCC(=O)CCCCC[C@@H]1NC(=O)[C@H](CCCCNC(C)=O)NC(=O)C[C@H](CC(C)C)NC(=O)[C@H](Cc2c[nH]c3ccccc23)NC1=O	–	–	–	–	GI50 (Jurkat): > 20 µM; GI50 (MCF7): > 20 µM; GI50 (HeLa): > 20 µM
CCC(=O)CCSC[C@@H]1NC(=O)[C@H](C)NC(=O)C[C@H](CC(C)C)NC(=O)[C@H](Cc2c[nH]c3ccccc23)NC1=O (cyclo(AC(X1)W[β3hL]))	> 10 µM	> 10 µM	> 10 µM	> 10 µM	–
O=C(O)CCCCC[C@@H]1NC(=O)[C@H]2CCCCN2C(=O)C[C@H](Cc2ccccc2)NC(=O)[C@H](Cc2c[nH]c3ccccc23)NC1=O	–	–	–	–	IC50 (Histone deacetylase [2]): 0.791 µM
CC(C)C[C@H]1CC(=O)N[C@@H](Cc2ccccc2)C(=O)N[C@@H](CCCCCC(=O)NO)C(=O)N[C@@H](Cc2c[nH]c3ccccc23)C(=O)N1 (cyclo([Asu](NHOH)W[β3hL]F))	–	0.07 µM	–	0.031 µM	GI50 (K562): 1.9 µM; GI50 (Jurkat): 1.3 µM; GI50 (cells): 1.9 µM
CC(C)C[C@H]1CC(=O)N[C@@H](CCCNC(=N)N)C(=O)N[C@@H](CCCCCC(=O)O)C(=O)N[C@@H](Cc2cccc3ccccc23)C(=O)N1 (cyclo([Asu][1Nal][β3hL]R))	0.178 µM	1.4 µM	0.607 µM	0.262 µM	–
CC(C)C[C@H]1CC(=O)N[C@@H](C)C(=O)N[C@@H](CCCCCC(=O)O)C(=O)N[C@@H](Cc2cccc3ccccc23)C(=O)N1 (cyclo([Asu][1Nal][β3hL]A))	0.2 µM	–	–	0.99 µM	IC50 (Histone deacetylase [5]): 0.205 µM; IC50 (Histone deacetylase [2]): 0.377 µM
CC(C)C[C@H]1CC(=O)N[C@@H](C)C(=O)N[C@@H](CCCCCC(=O)NO)C(=O)N[C@@H](Cc2c[nH]c3ccccc23)C(=O)N1 (cyclo([Asu](NHOH)W[β3hL]A))	–	–	–	–	GI50 (Jurkat): 1.7 µM
CC(=O)NCCCCC[C@@H]1NC(=O)C[C@H](CC(C)C)NC(=O)[C@H](Cc2cccc3ccccc23)NC(=O)[C@H](CCCCCC(=O)O)NC1=O (cyclo([1Nal][β3hL][hLys](Ac)[Asu]))	0.008 µM	> 10 µM	–	0.032 µM	GI50 (K562): 30 µM; GI50 (Jurkat): 0.3 µM; GI50 (cells): 43 µM; IC50 (Histone deacetylase [5]): 0.017 µM; GI50 (HeLa): 18 µM
CC1(C)NC(=O)C[C@H](Cc2c[nH]c3ccccc23)NC(=O)[C@H](Cc2cccc3ccccc23)NC(=O)[C@H](CCCCCC(=O)O)NC1=O (cyclo([1Nal][β3hW][Aib][Asu]))	–	3.7 µM	–	–	–
CCC(=O)CCCCC[C@@H]1NC(=O)[C@H](C)NC(=O)C[C@H](CC(C)C)NC(=O)[C@H](Cc2c[nH]c3ccccc23)NC1=O	–	–	–	–	GI50 (K562): 2 µM; GI50 (MCF7): > 20 µM
O=C(O)CCCCC[C@@H]1NC(=O)[C@H](Cc2ccccc2)NC(=O)C[C@H](Cc2c[nH]c3ccccc23)NC(=O)[C@H](Cc2cccc3ccccc23)NC1=O (cyclo([1Nal][β3hW]F[Asu]))	0.46 µM	8 µM	–	1.67 µM	IC50 (Histone deacetylase [5]): 1.04 µM; IC50 (Histone deacetylase [2]): 1.009 µM
CC(=O)NCCCC[C@@H]1NC(=O)C[C@H](Cc2ccc(O)cc2)NC(=O)[C@H](Cc2cccc3ccccc23)NC(=O)[C@H](CCCCCC(=O)O)NC1=O (cyclo([1Nal][β3hY]K(Ac)[Asu]))	–	4.4 µM	–	–	–
CC(C)C[C@H]1CC(=O)N[C@@H](Cc2ccccc2)C(=O)N[C@@H](CCCCCC(=O)O)C(=O)N[C@@H](Cc2cccc3ccccc23)C(=O)N1 (cyclo([1Nal][β3hL]F[Asu]))	0.068 µM	5.8 µM	0.53 µM	0.69 µM	GI50 (K562): > 20 µM; Activity [3]: Active; Activity [4]: inactive; GI50 (Jurkat): > 20 µM; GI50 (cells): > 20 µM; IC50 (Histone deacetylase [5]): 0.253 µM; IC50 (Histone deacetylase [2]): 0.742 µM; GI50 (MCF7): > 20 µM; GI50 (HeLa): > 20 µM
CCC(=O)CCCCC[C@@H]1NC(=O)C[C@H](CC(C)C)NC(=O)[C@H](Cc2c[nH]c3ccccc23)NC(=O)[C@H](CCCCCC(=O)CC)NC1=O	0.15 µM	> 10 µM	1.4 µM	0.26 µM	–
CC(C)C[C@H]1CC(=O)NC(C)(C)C(=O)N[C@@H](CCCCCC(=O)O)C(=O)N[C@@H](Cc2cccc3ccccc23)C(=O)N1 (cyclo([1Nal][β3hL][Aib][Asu]))	–	–	0.87 µM	–	–
N=C(N)NCCC[C@@H]1NC(=O)C[C@H](Cc2ccc(O)cc2)NC(=O)[C@H](Cc2cccc3ccccc23)NC(=O)[C@H](CCCCCC(=O)O)NC1=O (cyclo([Asu][1Nal][β3hY]R))	–	–	1.4 µM	–	–
CC(C)C[C@H]1CC(=O)N[C@@H](C)C(=O)N[C@@H](CSCC(=O)O)C(=O)N[C@@H](Cc2c[nH]c3ccccc23)C(=O)N1 (cyclo(C(Carboxymethyl)W[β3hL]A))	> 10 µM	> 10 µM	9.7 µM	> 10 µM	–
